In patent US20060074243A1, “Hydroxamic acid and amide compounds and their use as protease inhibitors” (Pharmacia Corporation, priority 2002, published 2006):

Biological target: T1, Human recombinant MMP-2 (Homo sapiens, UniProt P08253)
T1 construct: made in house; host or cells: MMP-2-transfected p2AHT2 cells
T1 sequence (P08253 110-660): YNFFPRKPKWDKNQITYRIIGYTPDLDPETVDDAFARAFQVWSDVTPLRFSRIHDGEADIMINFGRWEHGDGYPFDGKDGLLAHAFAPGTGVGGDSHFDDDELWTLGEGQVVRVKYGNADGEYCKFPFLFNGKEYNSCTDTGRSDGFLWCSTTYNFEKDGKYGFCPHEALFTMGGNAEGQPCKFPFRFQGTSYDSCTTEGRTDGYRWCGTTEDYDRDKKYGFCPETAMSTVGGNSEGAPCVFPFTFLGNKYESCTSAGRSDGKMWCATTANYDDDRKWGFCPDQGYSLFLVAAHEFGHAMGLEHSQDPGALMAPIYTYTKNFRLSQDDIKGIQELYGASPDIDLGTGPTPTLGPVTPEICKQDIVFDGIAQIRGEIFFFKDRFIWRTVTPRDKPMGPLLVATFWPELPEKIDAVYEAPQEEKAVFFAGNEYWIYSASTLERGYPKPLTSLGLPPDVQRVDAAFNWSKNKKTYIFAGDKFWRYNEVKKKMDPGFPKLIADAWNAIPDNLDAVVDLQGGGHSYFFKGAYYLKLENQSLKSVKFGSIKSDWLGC
Assay: In vitro MMP inhibition analysis (fluorogenic peptide substrate cleavage), Ki
Format: biochemical
Protocol: Several compounds and salts were analyzed in an in vitro assay to determine their ability to inhibit the MMP cleavage of peptide substrates. Inhibition constant (Ki) were calculated from the assayed compound-MMP interactions.
Human recombinant MMP-1, MMP-2, MMP-9, MMP-13, and MMP-14 were used in this assay. All enzymes were prepared in Assignee's laboratories following usual laboratory procedures. Protocols for the preparation and use of these enzymes are available in the scientific literature. See, e.g., Enzyme Nomenclature (Academic Press, San Diego, Calif., 1992) (and the citations therein). See also, Frije et al., J. Biol. Chem., 26(24), 16766-73 (1994).
The MMP-2 proenzyme was purified by gelatin Sepharose chromatography from MMP-2-transfected p2AHT2 cells provided by Dr. Gregory Goldberg of Washington University (St. Louis, Mo.).
All MMPs were activated using 4-aminophenylmercuric acetate (“APMA”, Sigma Chemical, St. Louis, Mo.) or trypsin. MMP-9 also was activated using human recombinant MMP-3 (purified in Assignee's laboratory following standard cloning and purification techniques).
The following fluorogenic, methoxycoumarin-containing polypeptide substrate (I) was used in the MMP inhibition assays: MCA-ArgProLeuGlyLeuDpaAlaArgGluArgNH2 (I) “MCA” is 7-methoxycoumarin-4-yl acetyl. Substrate (I) was prepared Assignee's laboratory. In the absence of MMP inhibitory activity, the substrate is cleaved at the Gly-Leu peptide bond. This cleavage separates the highly fluorogenic peptide from the 2,4-dinitrophenyl quencher, thus resulting in increase of fluorescent intensity.
The stock solutions of the assayed compounds and salts were prepared in […] (DMSO). These stock solutions were diluted in Buffer A (100 mM Tris-HCl, 100 mM NaCl, 10 mM CaCl2, 0.05% polyoxyethylene 23 lauryl ether, pH 7.5) to obtain solutions with different compound concentrations, i.e., assay solutions with different concentrations of the assayed […] compound. The experiment controls contained the same amount of Buffer A/DMSO as the assayed sample, but contained none of the tested compound or salt.
The assays from which the Ki determinations were made were performed as follows. The assayed compound samples were incubated in separate wells of untreated white polystyrene plates (Nunc Nalgene International, Rochester, N.Y.), and analyzed on a Tecan SpectraFlour Plus plate reader. The excitation wavelength was 330 nm, and the emission wavelength—420 nm. All samples (assayed compounds and controls) were incubated in separate plate wells at room temperature for 1 hr in the presence of 4 μM of MMP substrate (I). In the absence of MMP inhibitory activity, substrate (I) was cleaved at the Gly-Leu bond resulting in an increase of relative fluorescence. Inhibition was observed as a reduced rate of this increase in relative fluorescence. […] This protocol is a modification of method by Knight et al., FEBS Lett., 296(3), 263-266 (1992). Apparent inhibitory constants were determined by non-linear regression of reaction velocity as a function of inhibitor and enzyme concentration using Morrison's equation, as described by Kuzmic, Anal. Biochem. 286, 45-50 (2000). Modifications were made in the non-linear regression method to allow a common control reaction rate and effective enzyme concentration to be shared between all dose-response relationships on a given assay plate. Since the substrate concentration was chosen to be at or below the Km, the apparent Ki's from this analysis were reported as Ki's without correction for the influence of substrate.
The above protocols were used to determine Ki constants for the compounds in Examples 2-35 above. All Ki values in Table 1 are given in nM units.

Row | Ki (Table 2) | Ki (Table 1) | Structure (SMILES)
1 | 660 pM |  | CCN1CCC(C(=O)NO)(S(=O)(=O)c2ccc(-c3ccc(-c4csc(C)n4)cc3)cc2)CC1 [Example 155]
2 |  | 160 pM | O=C(NO)C1(S(=O)(=O)c2ccc(-c3ccc(CCCC(F)(F)F)cn3)cc2)CCN(C2CC2)CC1 [Example 51]
3 |  | 952 pM | COCCN1CCC(C(=O)NO)(S(=O)(=O)c2ccc(-c3cnc(CCC(C)(F)F)cn3)cc2)CC1 [Example 65]
4 | 300 pM |  | CN1CCC(C(=O)NO)(S(=O)(=O)c2ccc(-c3ccc(OC(F)(F)C(F)F)cc3)cc2)CC1 [Example 146]
5 |  | 463 pM | CC(F)(F)CCc1cnc(-c2ccc(S(=O)(=O)C3(C(=O)NO)CCOCC3)cc2)cn1 [Example 60]
6 | 940 pM |  | O=C(NO)C1(S(=O)(=O)c2ccc(-c3ccc(CCC4CCCCC4)cn3)cc2)CCOCC1 [Example 129]
7 | 11900 pM |  | O=C(NO)C1(S(=O)(=O)c2ccc(-c3ccc(CCC(F)(C(F)(F)F)C(F)(F)F)cn3)cc2)CCOCC1 [Example 133]
8 | 100 pM |  | O=CN1CCC(C(=O)NO)(S(=O)(=O)c2ccc(-c3ccc(CCCC(F)(F)F)cn3)cc2)CC1 [Example 159]
9 | 83.5 pM |  | CCCCOc1cnc(-c2ccc(S(=O)(=O)C3(C(=O)NO)CCOCC3)cc2)cn1 [Example 73]
10 | 674 pM |  | CCCCCc1ccc(-c2ccc(S(=O)(=O)C3(C(=O)NO)CCOCC3)cc2)cc1 [Example 75]
11 |  | 120 pM | COCCN1CCC(C(=O)NO)(S(=O)(=O)c2ccc(-c3ccc(CCCC(F)(F)F)cn3)cc2)CC1 [Example 54]
12 |  | 790 pM | CC(F)(F)CCc1cnc(-c2ccc(S(=O)(=O)C3(C(=O)NO)CCN(C4CC4)CC3)cc2)cn1 [Example 66]

The next lines start with the molecule.

Row | Structure (SMILES) | Ki (Table 2) | Ki (Table 1)
13 | O=C(NO)C1(S(=O)(=O)c2ccc(-c3ccc(CCCC(F)(F)F)cc3)cc2)CCOCC1 [Example 42] |  | 339 pM
14 | CCOCCOc1ccc(-c2ccc(S(=O)(=O)C3(C(=O)NO)CCOCC3)cc2)cc1 [Example 37] |  | 89 pM
15 | CC(C)(C)N1CCC(C(=O)NO)(S(=O)(=O)c2ccc(-c3ccc(CCCC(F)(F)F)cc3)cc2)CC1 [Example 48] |  | 1840 pM
16 | COCCC(C(=O)NO)S(=O)(=O)c1ccc(-c2ccc(CCCC(F)(F)F)cc2)cc1 (centres unmarked) [Example 47] |  | 1170 pM
17 | O=C(NO)C1(S(=O)(=O)c2ccc(-c3ccc(CCCC(F)(F)F)cc3)cc2)CCN(C2CC2)CC1 [Example 44] |  | 480 pM
18 | O=C(NO)C1(S(=O)(=O)c2ccc(-c3ccc(OC(F)(F)C(F)F)cc3)cc2)CCN(C2CC2)CC1 [Example 40] |  | 74 pM
19 | O=C(NO)C1(S(=O)(=O)c2ccc(-c3ccc(CCC(F)(F)C(F)(F)F)cn3)cc2)CCN(C2CC2)CC1 [Example 50] |  | 190 pM
20 | O=C(NO)C1(S(=O)(=O)c2ccc(-c3ccc(CCC(F)(F)C(F)(F)F)cc3)cc2)CCN(C2CC2)CC1 [Example 45] |  | 550 pM
